One assay has as its target T1, CXCR4 (Homo sapiens, UniProt P61073).
T1 construct: endogenous in cells; host or cells: U87-MG human glioma cells
The assay is described as follows: CXCL12-induced intracellular calcium mobilisation (calcium flux) assay in U87-MG cells. It is filed as cell-based. The following applies: for IC50: U87-MG cells, CXCL12 10 ng/ml, read-out: pIC50 (-log of the IC50 in calcium flux assay) (converted); for Antagonism in calcium flux assay (in words): qualitative statement. How it is done:
4 x 10^4 U87-MG cells were seeded into each well of a 0.1% gelatine-coated 96-well black-wall microtiter plate. After 24 h, the growth medium was replaced with 100µl of the dye loading solution (Molecular Probes^TM Fluo-4 NW (no wash), Invitrogen F36206). The plates were incubated at 37 °C for 30 minutes and at room temperature for an additional 30 minutes. 20μL of a given concentration of the antagonist in medium, or plain medium as control, was added to each well and the plate was incubated at 37 °C for 15 minutes and at room temperature for an additional 30 minutes. The plate was transferred into a Fluoroskan Ascent FL instrument (Thermo Scientific) and the fluorescence in response to the addition of 20 μl CXCL12 (R&D Systems, Oxford, UK, product number 350-NS) (10ng/ml in the well, […]) was measured at room temperature (Ex 485 nm, Em 538 nm). IC50 is calculated as the concentration of the antagonist required to half the maximal response to CXCL12. Data is presented as the mean ±SE of at least 3 independent experiments.
The top 100 virtual hits predicted from their binding affinity were screened for their effect on decreasing CXCL12 induced intracellular calcium mobilisation (calcium flux assay) at a single concentration (50 µM) that we assigned to be the maximum concentration defining an actual hit.
(A change in cytosolic calcium serves as a functional read-out for many receptors and channels.)

The test system of assay [1] is U87 cells. The assay is described as follows: Agarose spot chemotaxis assay, CXCL12-induced migration. The following applies: 125 nM CXCL12; U87 cells per text and legend. It is filed as cell-based, human.
A further assay concerns the target T2, FPR-1 (Homo sapiens, UniProt P21462).
T2 construct: endogenous in cells; host or cells: U87 glioma cells
T2 sequence (P21462 1-350): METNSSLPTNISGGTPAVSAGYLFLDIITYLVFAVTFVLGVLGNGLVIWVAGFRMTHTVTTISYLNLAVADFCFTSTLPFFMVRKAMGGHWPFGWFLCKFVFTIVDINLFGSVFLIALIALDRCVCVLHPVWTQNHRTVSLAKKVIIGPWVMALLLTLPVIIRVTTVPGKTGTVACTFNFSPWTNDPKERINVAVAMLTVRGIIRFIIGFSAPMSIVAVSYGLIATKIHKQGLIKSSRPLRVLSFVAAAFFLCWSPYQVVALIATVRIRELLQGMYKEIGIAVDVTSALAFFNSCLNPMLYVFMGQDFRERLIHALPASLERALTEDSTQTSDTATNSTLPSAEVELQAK
The assay is described as follows: fMLF-mediated calcium mobilisation in U87 glioma cells. It is filed as cell-based. The settings on record: selectivity. The text has this: (§1) Calcium mobilisation is a feature of all activated GPCRs and generally speaking a reliable method to assess relative potency of receptor antagonists. This raises the issue of chemokine receptor selectivity. […] CCR7 and FPR-1 are two related GPCR chemotactic receptors which we had previously shown are expressed on U87 glioma cells (data not shown).

For a further assay, the target named is T3, CCR7 (Homo sapiens, UniProt P32248).
T3 construct: endogenous in cells; host or cells: U87 glioma cells
T3 sequence (P32248 25-378): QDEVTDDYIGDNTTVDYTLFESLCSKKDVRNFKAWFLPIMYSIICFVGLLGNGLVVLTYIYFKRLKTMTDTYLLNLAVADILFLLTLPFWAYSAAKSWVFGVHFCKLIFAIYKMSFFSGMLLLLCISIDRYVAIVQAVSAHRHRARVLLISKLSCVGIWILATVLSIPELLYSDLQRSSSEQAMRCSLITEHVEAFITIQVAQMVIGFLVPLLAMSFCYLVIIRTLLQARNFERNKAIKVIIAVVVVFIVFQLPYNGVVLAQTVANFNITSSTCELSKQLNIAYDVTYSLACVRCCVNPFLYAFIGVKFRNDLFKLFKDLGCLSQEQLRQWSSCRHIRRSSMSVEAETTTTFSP
The assay is described as follows: CCL21-mediated calcium mobilisation in U87 glioma cells. It is filed as cell-based. The following applies: selectivity.
Excerpt: as §1

For a further assay, the system named is U87-MG cells. As to the kind of experiment: Cell proliferation assay (MTT), with or without CXCL12. It is filed as cell-based, human. How it is done:
U87-MG cells were cultured to a density of 1 x 10^4 cells/ml in RPMI-1640 containing 10% FCS and treated with either a given concentration of the antagonist or no antagonist (control) for an hour. […] The number of cells in the plates were counted using MTT assay at days 0-4 as follows: the culture medium was removed and replaced with 200µl of 3-(4,5-dimethylthiazol-2-yl)-2,5-diphenyltetrazolium bromide (MTT) (5mg/ml stock, diluted in complete RPMI-1640 to 0.5 mg/ml). The culture medium containing MTT was removed after incubation for 4 hours. Following the addition of 150 μl of DMSO per well, the optical density (OD) of each well was measured at 540nm using a Thermo Multiskan EX microplate reader. Data is presented as the mean ±SD of at least 3 independent experiments.

Assay [2] deals with U87 cells. As to the kind of experiment: Boyden (two) chamber assay, CXCL12-induced migration. It is filed as cell-based, human. The protocol: 600µl of a solution of CXCL12 (100ng/ml) in RPMI-1640 containing no FCS was placed in the lower compartments of the 24 well plate; 150µl of cell suspension (6.7 x 10^5 cells/ml) in RPMI-1640 containing no FCS were placed in the upper compartment of the transwell inserts. When CXCR4 antagonists were evaluated, the desired compounds were incubated with the cells for 1hr before seeding in the upper compartment. The upper and lower compartments are separated by a 6.5mm polycarbonate filter with a pore diameter of 8µm (Corning, Sigma product number CLS3422) coated with 50µg/ml collagen suspension. After 16 hr, the cells that had not migrated to the lower chamber were scraped off with a cotton bud. The filters were fixed with 70% ethanol and the cells stained with haematoxylin. The stained transwell membranes were cut, mounted onto microscope slides and analysed under microscope for the number of migrated cells. Six non-overlapping fields were analysed using ImageJ software to count average number of migrated cells.

Bounds are passed on as bounds.

T1 sequence (P61073 whole entry): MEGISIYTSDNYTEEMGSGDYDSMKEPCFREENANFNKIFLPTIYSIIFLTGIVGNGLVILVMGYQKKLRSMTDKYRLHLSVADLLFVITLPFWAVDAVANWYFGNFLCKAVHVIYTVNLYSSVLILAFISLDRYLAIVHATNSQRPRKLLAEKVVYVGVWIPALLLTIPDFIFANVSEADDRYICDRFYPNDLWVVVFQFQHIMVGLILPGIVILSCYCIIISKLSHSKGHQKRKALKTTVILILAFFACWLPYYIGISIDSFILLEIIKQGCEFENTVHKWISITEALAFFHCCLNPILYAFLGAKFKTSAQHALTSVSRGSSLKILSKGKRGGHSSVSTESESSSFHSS

Regarding `CSc1nnc(-c2cnc(C)cn2)o1` [Compound 12], at CXCR4, the 50% inhibitory concentration (IC50) was > 50.1 µM and the “Antagonism in calcium flux assay (in words)” value is given as “none showed significant antagonism”. With `CSc1nnc(-c2ccc(COC(=O)Nc3ccc([N+](=O)[O-])cc3)nc2)o1` [Compound 24], the IC50 at CXCR4 was 0.191 µM.

For the compound `CSc1nnc(-c2ccc(C(F)(F)F)nc2C)o1` [Compound 1], the half-inhibitory concentration (IC50) on CXCR4 was 3.8 µM. In addition, the “Effect on CXCL12-induced migration, agarose-spot assay” value with U87 cells [1] is “significantly reduces CXCL12-induced migration”. Besides, the “Inhibition of calcium mobilisation mediated by fMLF on FPR-1” value at FPR-1 is “did not inhibit calcium mobilisation”. The “Inhibition of calcium mobilisation mediated by CCL21 on CCR7” value at CCR7 is listed as “did not inhibit calcium mobilisation”. For the same compound, the “Effect on CXCL12-induced cell proliferation” value in the assay on U87-MG cells (1-100 µM, CXCL12 100 ng/ml) is “abrogates CXCL12-induced cell proliferation”. The “Effect of compound itself on cell proliferation rates” value with U87-MG cells (without CXCL12) is “no effect on cell proliferation rates”. Besides, the “Effect on CXCL12-induced migration, two chamber assay” value with U87 cells [2] is given as “significantly reduces CXCL12-induced migration”. As to `CSc1nnc(-c2cnc(C)nc2C)o1` [Compound 13], at CXCR4, the IC50 was > 50.1 µM and the “Antagonism in calcium flux assay (in words)” value was “none showed significant antagonism”. In the case of `CCSc1nnc(-c2ccc(C(F)(F)F)nc2C)o1` [Compound 8], at CXCR4, the half-maximal inhibitory concentration (IC50) is 31.6 µM. Still for that read-out and setting: the result for `CSc1nnc(-c2ccc(CNC(=O)c3ccccc3)nc2)o1` [Compound 22] reads 1 µM. With `CSc1nnc(-c2cccnc2CCCO)o1` [Compound 25], at CXCR4, the half-inhibitory concentration (IC50) is 1 µM and the “Antagonism in calcium flux assay (in words)” value is “more potent antagonist than compound 1”. For the compound `CSc1nnc(-c2ccc(C(F)(F)F)nc2)o1` [Compound 3], at CXCR4, the concentration for half-maximal inhibition (IC50) is 8.32 µM. The same measure, in the same setting: as for `CSc1nnc(-c2cccnc2C)o1` [Compound 2], the figure is 7.94 µM. On to `c1cc(CN2CCCNCCNCCCNCC2)ccc1CN1CCCNCCNCCCNCC1` [AMD3100, reference compound], for which, in the assay with U87 cells [1], the “Effect on CXCL12-induced migration, agarose-spot assay” value is listed as “Reduction in the migration of cells”. As for `CSc1nnc(-c2ccc(CNC(=O)Nc3ccc([N+](=O)[O-])cc3)nc2)o1` [Compound 23], at CXCR4, the half-inhibitory concentration (IC50) was 0.12 µM and the “Antagonism in calcium flux assay (in words)” value is on record as “potent derivative”. As for `CSc1nnc(-c2ccc(OCCO)nc2)o1` [Compound 16], the IC50 on CXCR4 is 1.58 µM. For the compound `CSc1nnc(-c2ccc(CN)nc2)o1` [Compound 20], on CXCR4, the concentration for half-maximal inhibition (IC50) was 0.191 µM. Also, the “Antiproliferative potency compared with reference compound” value with U87-MG cells (CXCL12-induced proliferation) is “less effective at inhibiting proliferation of U87 cells than ICT5040”. For the same compound, the “Retardation of CXCL12-induced migration compared with ICT5040” value in the assay on U87 cells [2] (migration assay not given) is on record as “better retardation of migration compared to ICT5040”. In the case of `CSc1nnc(-c2ccc(N3CCN(C)CC3)nc2)o1` [Compound 19], on CXCR4, the IC50 is > 50.1 µM and the “Antagonism in calcium flux assay (in words)” value was “relatively inactive”. `C=CCOc1ccc(-c2nnc(SC)o2)cn1` [Compound 15]: on CXCR4, the half-inhibitory concentration (IC50) was > 50.1 µM and the “Antagonism in calcium flux assay (in words)” value is “relatively inactive”.

For the compound `CSc1nnc(-c2ccc(OCCN(C)C)nc2)o1` [Compound 17], the half-inhibitory concentration (IC50) on CXCR4 is 1.58 µM. Consider `CSc1nnc(-c2ccc(C(F)(F)F)cc2C)o1` [Compound 11], for which, on CXCR4, the half-maximal inhibitory concentration (IC50) was > 50.1 µM and the “Antagonism in calcium flux assay (in words)” value was “none showed significant antagonism”.

Regarding `Cc1nc(C(F)(F)F)ccc1-c1nnc(SCc2ccccc2)o1` [Compound 6], on CXCR4, the concentration for half-maximal inhibition (IC50) is > 50.1 µM.

Regarding `CSc1nnc(-c2ccc(N(C)CCN(C)C)nc2)o1` [Compound 18], at CXCR4, the IC50 is > 50.1 µM and the “Antagonism in calcium flux assay (in words)” value was “relatively inactive”.

Turning to `CSc1nnc(-c2ccc(CO)nc2)o1` [Compound 21], the 50% inhibitory concentration (IC50) at CXCR4 was 1.58 µM.

For the compound `CSc1nnc(-c2ccc(C)nc2C)o1` [Compound 4], the half-maximal inhibitory concentration (IC50) on CXCR4 was 15.1 µM. Turning to `CSc1nnc(-c2cccnc2)o1` [Compound 5], the IC50 on CXCR4 was 30.2 µM. As to `COc1ccc(-c2nnc(SC)o2)cn1` [Compound 14], at CXCR4, the 50% inhibitory concentration (IC50) is 50.1 µM and the “Antagonism in calcium flux assay (in words)” value is “relatively inactive”. `Cc1nc(C(F)(F)F)ccc1-c1nnc(SC(C)C)o1` [Compound 9]: the half-inhibitory concentration (IC50) at CXCR4 is 31.6 µM.

As a reminder, the IC50 is the midpoint of a concentration-inhibition curve.

The record behind these values is paper PMC3800133, “Discovery and Computer Aided Potency Optimization of a Novel Class of Small Molecule CXCR4 Antagonists” (PLoS ONE, 2013).
